Experimental data reported in ChEMBL document CHEMBL1201862, “PubChem BioAssay data set” (2004).
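Each compound was tested at five concentrations against cells in 96-well plates for 48 hours. At the GI50, growth is halved.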 Active and inactive are the calls of the source. Cut-off read from the data, not from the text of the source: active = GI50 up to about 1.1 µM and inactive = higher.

Assays:
Assay in all cases: NCI anticancer screen, dose series, 48 h
[1] = test system: 786-0
[2] = test system: A498
[3] = test system: A549
[4] = test system: ACHN
[5] = test system: BT-549
[6] = test system: CAKI-1
[7] = test system: CCRF-CEM
[8] = test system: COLO 205
[9] = test system: DU-145
[10] = test system: EKVX
[11] = test system: HCC 2998
[12] = test system: HCT-116
[13] = test system: HCT-15
[14] = test system: HL-60
[15] = test system: HOP-62
[16] = test system: HOP-92
[17] = test system: HT-29
[18] = test system: Hs-578T
[19] = test system: IGROV-1
[20] = test system: K562
[21] = test system: KM12
[22] = test system: LOX IMVI
[23] = test system: M14
[24] = test system: MDA-MB-231
[25] = test system: MDA-MB-435
[26] = test system: MOLT-4
[27] = test system: Malme-3M
[28] = test system: NCI-H226
[29] = test system: NCI-H23
[30] = test system: NCI-H460
[31] = test system: NCI-H522
[32] = test system: NCI/ADR-RES
[33] = test system: OVCAR-3
[34] = test system: OVCAR-4
[35] = test system: OVCAR-5
[36] = test system: OVCAR-8
[37] = test system: PC-3
[38] = test system: RPMI-8226
[39] = test system: RXF 393
[40] = test system: SF-268
[41] = test system: SF-295
[42] = test system: SK-MEL-28
[43] = test system: SK-MEL-2
[44] = test system: SK-MEL-5
[45] = test system: SK-OV-3
[46] = test system: SNB-19
[47] = test system: SNB-75
[48] = test system: SR
[49] = test system: SW-620
[50] = test system: T47D
[51] = test system: TK-10
[52] = test system: U-251
[53] = test system: UACC-257
[54] = test system: UACC-62
[55] = test system: UO-31
[56] = test system: MCF7
[57] = test system: SN12C
[58] = test system: MDA-N
[59] = test system: SF-539

Measured: GI50

CC1(C)OC([C@H](O)CO)C([C@H]2NCCS2)O1 (stereo partly drawn)
> 100 µM: [13]
inactive: [1] > 100 µM | [2] > 100 µM | [3] > 100 µM | [4] > 100 µM | [5] > 100 µM | [6] > 100 µM | [7] > 100 µM | [8] > 100 µM | [9] > 100 µM | [10] > 100 µM | [11] > 100 µM | [12] > 100 µM | [14] > 100 µM | [15] > 100 µM | [16] > 100 µM | [17] > 100 µM | [18] > 100 µM | [19] > 100 µM | [20] > 100 µM | [21] > 100 µM | [22] > 100 µM | [23] > 100 µM | [24] > 100 µM | [25] > 100 µM | [26] > 100 µM | [27] > 100 µM | [28] > 100 µM | [29] > 100 µM | [30] > 100 µM | [31] > 100 µM | [32] > 100 µM | [33] > 100 µM | [34] > 100 µM | [35] > 100 µM | [36] > 100 µM | [37] > 100 µM | [38] > 100 µM | [39] > 100 µM | [40] > 100 µM | [41] > 100 µM | [42] > 100 µM | [43] > 100 µM | [44] > 100 µM | [45] > 100 µM | [46] > 100 µM | [47] > 100 µM | [48] > 100 µM | [49] > 100 µM | [50] > 100 µM | [51] > 100 µM | [52] > 100 µM | [53] > 100 µM | [54] > 100 µM | [55] > 100 µM

Cc1cc(C)nc(SCC(=O)OC2CC(C)CCC2C(C)C)n1 (stereo not drawn)
15.6 µM: [13]
inactive: [1] 21.6 µM | [2] 18.1 µM | [3] 22.6 µM | [4] 18.7 µM | [5] 45.9 µM | [6] 20.3 µM | [7] 16.6 µM | [8] 16.7 µM | [9] 34.3 µM | [10] 17.9 µM | [12] 19.2 µM | [14] 19.1 µM | [15] 11.6 µM | [16] 26 µM | [17] 16.4 µM | [18] 33.4 µM | [19] 20.6 µM | [20] 20 µM | [21] 20.1 µM | [22] 20 µM | [23] 16.7 µM | [56] 23.3 µM | [24] 17.9 µM | [25] 23.6 µM | [26] 16.7 µM | [27] 21.6 µM | [29] 24.8 µM | [30] 18.8 µM | [31] 18.8 µM | [32] 17 µM | [33] 14.3 µM | [34] 20.9 µM | [35] 22.3 µM | [36] 38.3 µM | [37] 28.3 µM | [38] 19.3 µM | [39] 16.8 µM | [40] 37 µM | [41] 14.6 µM | [42] 26 µM | [43] 21.8 µM | [44] 15.2 µM | [45] 23.9 µM | [57] 19.1 µM | [46] 18.7 µM | [47] 21 µM | [49] 19.9 µM | [50] 14.8 µM | [51] 34.3 µM | [52] 22.5 µM | [53] 19.6 µM | [54] 14.6 µM | [55] 18.7 µM

CCOC(=O)C1(N)CC1
inactive: [1] > 100 µM | [2] > 100 µM | [3] > 100 µM | [4] > 100 µM | [6] > 100 µM | [7] > 100 µM | [9] > 100 µM | [10] > 100 µM | [11] > 100 µM | [12] > 100 µM | [14] > 100 µM | [15] > 100 µM | [16] > 100 µM | [17] > 100 µM | [18] > 100 µM | [19] > 100 µM | [20] > 100 µM | [21] > 100 µM | [22] > 100 µM | [23] > 100 µM | [56] > 100 µM | [24] > 100 µM | [25] > 100 µM | [58] > 100 µM | [26] > 100 µM | [27] > 100 µM | [28] > 100 µM | [29] > 100 µM | [30] > 100 µM | [31] > 100 µM | [32] > 100 µM | [33] > 100 µM | [34] > 100 µM | [35] > 100 µM | [36] > 100 µM | [37] 71 µM | [38] > 100 µM | [39] > 100 µM | [40] > 100 µM | [41] > 100 µM | [59] > 100 µM | [42] > 100 µM | [44] > 100 µM | [57] > 100 µM | [46] > 100 µM | [47] > 100 µM | [48] > 100 µM | [49] > 100 µM | [50] 56.8 µM | [51] > 100 µM | [52] > 100 µM | [53] > 100 µM | [55] > 100 µM
> 100 µM: [13]
